“Also recorded” adds a separate entry of the source.
Assays:
CD mice = assay: Tail-flick test, morphine-induced analgesic tolerance; type: in vivo, mouse; conditions: pioglitazone alone 10 or 30 mg/kg
Experimental: All procedures were conducted in adherence to the European Community Council Directive for Care and Use of Laboratory Animals.
Mice were divided into 6 groups. Group 1 (n=8) received drug vehicles (veh/veh). […] Animals were treated twice daily (between 9:00 and 10:00 a.m. and 9:00 and 10:00 p.m.).
Morphine hydrochloride was purchased from Salars (Milano, Italy). Morphine (30 mg/kg) was dissolved in NaCl […] and was injected intraperitoneally (IP) twice a day at the indicated doses in a volume of 0.2 ml per mice. […] It was dissolved in distilled water and was administered per o.s. at the doses of 10 mg/kg and 30 mg/kg in a volume of 0.6 ml per mice.
Two different tests were used to monitor analgesic responses. The tail-flick test was performed 45 min after the morning injection of morphine, and the tail-immersion test was performed 45 min after the evening injection of morphine.
For the tail-flick test, each mouse was gently restrained in a soft tissue pocket, and the tail (1 cm from the tip) was exposed to a hot light beam. Latency for tail-flick was measured with a 6 seconds cut-off time. For the tail-immersion test, each mouse was restrained in a soft tissue pocket, and the distal half of the tail dipped into a water bath set at 52 C°. Latency for removing the tail from the hot water was measured with a 10 seconds cut-off time.

heavy tobacco smokers = assay: Pilot clinical study in heavy tobacco smokers; type: in vivo, human
Experimental: Data were recorded for two months, during which patients were seen by the physician every other week. Patients were instructed to record in a personal logbook the number of cigarettes per day and the time of the day smoking occurred. At the end of the study, the logbooks were returned to the clinical personnel who analyzed the data. […] During the first month of treatment, every two weeks, ACTH and cortisol levels were also monitored to evaluate HPA activation before and during treatment.

msP rats [1] = assay: Cue-induced reinstatement of alcohol seeking; type: in vivo, rat; conditions: pioglitazone 10.0, 30.0 mg/kg at 12 hours and 1 hour before test
Experimental: Cue-induced reinstatement of alcohol-seeking behaviour experimental procedures consisted of three phases: (1) conditioning phase; (2) extinction phase; and (3) reinstatement phase, as described below.
For the conditioning phase, at the completion of the fading procedure (see above), in 30 min daily sessions, animals were trained to discriminate between 10% alcohol and water. Beginning with self-administration training at the 10% alcohol concentration, discriminative stimuli (SD) predictive of alcohol versus water availability were presented during the alcohol and water self-administration sessions, respectively. The discriminative stimulus for alcohol consisted of the odour of an orange extract (S^+) whereas water availability (i.e. no reward) was signalled by an anise extract (S^−). The olfactory stimuli were generated by depositing six to eight drops of the respective extract into the bedding of the operant chamber. In addition, each lever-press resulting in delivery of alcohol was paired with illumination of the chamber's house light for 5 sec (CS^+). The corresponding cue during water sessions was a 5 second tone (70 dB) (CS). Concurrently with the presentation of these stimuli, a 5 sec. time-out period was in effect, during which responses were recorded but not reinforced. The olfactory stimuli serving as S^+ or S^− for alcohol availability were introduced one minute before extension of the levers and remained present throughout the 30-min. sessions. The bedding of the chamber was changed and bedding trays were cleaned between sessions. During the first three days of the conditioning phase, the rats were given alcohol sessions only. Subsequently, alcohol and water sessions were conducted in random order across training days, with the constraint that all rats received a total of 10 alcohol and 10 water sessions.
For the extinction phase, after the last conditioning day, rats were subjected to 30-min extinction sessions for 15 consecutive days. During this phase, sessions began by extension of the levers without presentation of the SD. […]

alcoholic patients = assay: Observational study of alcohol abuse in human patients; type: in vivo
From the text: ACT)+psychotherapy. […] Patients were instructed to record in a personal logbook the number of drinks per day and the time of the day drinks occurred. At the end of the study, the logbooks were returned to the clinical personnel who analyzed the data. […] In addition, biochemical parameters to ascertain alcohol detoxification and to measure recovery of physiological functions (i.e., hepatic function) were monitored monthly. Hematological parameters measured included: mean corpuscular volume (MCV); gamma-GT; aspartate aminotransferase (AST); alanine aminotransferase (ALT); and carbohydrate-deficient transferring (CDT). MCV and CDT are biomarkers for ethanol consumption, and GGT, ALT and AST are biomarkers for hepatic functionality. Data were analyzed by analysis of variance followed by Newman-Keuls post hoc tests when appropriate.

[2] = Young, Buckle et al. 1998; Breidert et al. 2002; cited from earlier work
Wistar rats = assay: Acquisition of heroin self-administration (FR1); type: in vivo, rat
msP rats [3] = assay: Yohimbine-induced (stress) reinstatement of alcohol seeking
From the text: Stress-induced reinstatement of alcohol-seeking experimental procedures consisted of three phases: (1) training phase; (2) extinction phase; and (3) reinstatement phase, as described below.
For the training phase, after completion of the fading procedure, msP rats were trained to self-administer 10% (v/v) alcohol for 15 days in 30-min daily sessions under a FR1 schedule of reinforcement. During the infusion, a stimulus house light was turned on for 5 s (time out; TO).
For the extinction phase, after the last alcohol self-administration session, animals were subjected to 30-min extinction sessions for 15 consecutive days.
The day after the last extinction session, rats were subjected to the reinstatement test.
Animals received all drug treatments according to a counterbalance Latin square design. A 3-day interval, during which animals were subjected to extinction sessions, was allowed between drug tests.

msP rats [4] = assay: Acute voluntary ethanol intake, free choice 10% alcohol 24 hours a day; type: in vivo, rat
Experimental: MsP rats were first trained to drink 10% (w/v) alcohol for 24 hours a day (free choice between water and ethanol). […] Before starting the treatment, rats were trained to gavage administration procedures for three days, during which they received vehicle (distilled water). […] Drinking experiments started at the beginning of the dark cycle. Alcohol, water and food intakes were monitored at 2, 8 and 24 hours after ethanol was made available.
Before starting the treatment, rats were trained to gavage and IP administration procedures for three days. Experiment was conducted in a between subject design (n=22). […] Drinking experiments started at the beginning of the dark cycle. Alcohol, water and food intakes were monitored at 2, 8 and 24 hours after ethanol was made available.
The drinking experiments were conducted at the beginning of the dark cycle, and alcohol, water and food intakes were monitored at 2, 8 and 24 hours after ethanol was made available.
(§1) MsP rats were first trained to drink 10% (w/v) alcohol for 24 hours a day (free choice between water and ethanol). […] Rats treated with drug vehicles served as a control. Before starting the treatment, rats were trained to gavage administration for three days, during which they received drugs vehicle (distilled water). […] Drinking experiments started at the beginning of the dark cycle. Alcohol, water, and food intakes were monitored at 2, 8 and 24 hours after ethanol was made available.
as §1, with “water” for “water,”
as §1, with “water” for “water,”
as §1, with “water” for “water,”
as §1, with “water” for “water,”
as §1, with “water” for “water,”

[5] = pioglitazone 30 mg/day or naltrexone 50 mg/day + psychotherapy

CCc1ccc(CCOc2ccc(CC3SC(=O)NC3=O)cc2)nc1.Cl (centres unmarked) [pioglitazone]
analgesic responses (tail-flick) (CD mice): did not differ from controls
weekly smoked cigarettes, pioglitazone versus varenicline (post hoc) (heavy tobacco smokers; human, in vivo): no significant differences
craving score (visual analogic craving scale) (heavy tobacco smokers; over treatment): highest reduction
STAI anxiety score (heavy tobacco smokers; over treatment weeks): significantly reduced
weekly smoked cigarettes compared to bupropione (post hoc) (heavy tobacco smokers; p<0.05): significant difference
subjects reaching complete abstinence (heavy tobacco smokers; pioglitazone 4 patients, varenicline 3 patients): One
cue-induced (conditioned) reinstatement of alcohol-seeking (msP rats [1]): not significantly modified; also recorded: lack of effect
hepatic parameters (GGT, ALT, AST) (alcoholic patients; 2-month treatment): more pronounced
Anxiety Score, STAY-Y1 scale (mean score values) (alcoholic patients; T = 1.1 (month 1, week 1)): 58
Depression Scale M.A.D.R.S (mean score values) (alcoholic patients; T = 1.3): 10
Depression Scale M.A.D.R.S (mean score values) (alcoholic patients; T = 1.4): 11
Depression Scale M.A.D.R.S (mean score values) (alcoholic patients; T = 2.3): 10
depression score, time course (alcoholic patients; during treatment with pioglitazone 30 mg/day): decreased starting from the second week of treatment
effect on daily drinks, comparison of drugs (alcoholic patients; month 2 week 2 (T2.2) to month 2 week 4 (T2.4), p<0.001): significantly higher than that of naltrexone
blood parameters (MCV, CDT, GGT, ALT, AST) (alcoholic patients; pioglitazone 30 mg/day): rapid normalization
progressive decrease in anxiety score during treatment (alcoholic patients; pioglitazone 30 mg/day): highest effect
progressive decrease in obsessive compulsive score for alcohol (OCDS) (alcoholic patients; pioglitazone 30 mg/day): extremely robust; also recorded: consistently reduced
daily ethanol intake (number of daily drinks) (alcoholic patients; [5]): significantly reduced
number of abstinence days (alcoholic patients; [5]): increased; also recorded: highest effect
CDT and AST, naltrexone versus pioglitazone (alcoholic patients; post hoc): No significant difference
OCDS versus controls (alcoholic patients; post hoc, P<0.001): statistically significant difference
all five blood biomarkers versus controls (psychotherapy alone) (alcoholic patients; post hoc, P<0.001): statistical difference
reducing the values of MCV, GGT and ALT, comparison of drugs (alcoholic patients; post hoc, P<0.001): more effective than naltrexone
MADRS depression score, pioglitazone versus naltrexone (alcoholic patients; post hoc, p<0.001): significantly different
OCDS, pioglitazone versus naltrexone (alcoholic patients; post hoc, p<0.001): more effective than naltrexone
anxiety score, pioglitazone versus naltrexone (alcoholic patients; post hoc, p<0.001): more effective than naltrexone
number of abstinence days, comparison of drugs (alcoholic patients; second month of therapy (T 2.1-T2.4)): significantly higher
crossing of the blood brain barrier compared with rosiglitazone [2]: crosses the blood brain barrier more easily
heroin self-administration versus control, day 3 to day 8 (Wistar rats; pioglitazone 30 mg/kg twice daily): significant difference
acquisition of heroin self-administration (Wistar rats; pioglitazone 30 mg/kg twice daily (12 hours and 1 hour prior to session)): significantly decreased
yohimbine-induced reinstatement of alcohol seeking (active lever) (msP rats [3]; pioglitazone 10 mg/kg OS at 12 hours and 1 hour before test): clear trend (p=0.07) to an inhibition
yohimbine-induced reinstatement of alcohol seeking (active lever) (msP rats [3]; pioglitazone 30 mg/kg OS at 12 hours and 1 hour before test, p<0.01): significant inhibition
effect of yohimbine on reinstatement of responding, overall (msP rats [3]; pre-treatment with pioglitazone 10.0 and 30.0 mg/kg): significantly reduced; also recorded: markedly reduced
ethanol intake, drug alone (post-hoc) (msP rats [4]; low dose given at 12 hours and 1 hour before access, pioglitazone 10 mg/kg OS, partner drugs at doses of the examples): did not significantly modify
ethanol intake at 2 hours, drug alone (msP rats [4]; pioglitazone 10 mg/kg OS, topiramate 30.0 mg/kg OS, p<0.05): significant reduction
ethanol consumption at 2 hours (msP rats [4]; pioglitazone 30 mg/kg OS): significantly reduced
ethanol consumption at 8 hours (msP rats [4]; pioglitazone 30 mg/kg OS): significantly reduced
ethanol consumption at 24 hours (msP rats [4]; pioglitazone 30 mg/kg OS): significantly reduced

— patent publication US20130296347A1, “Compositions and Methods for Prophylaxis and Treatment of Addictions” (Omeros Corporation, priority 2007, published 2013)
